For series [1], the system named is patients with mild to moderate COPD. As to the kind of experiment: Multi-center crossover clinical trial, single administration: FEV1 spirometry. It is filed as in vivo, human. As to conditions: all doses of Glycopyrrolate MDI; tiotropium 18 μg.
Series [2] in a line: Visual observation of suspension quality / co-suspension in glass vials, incl. centrifugation. It is filed as physicochemical. The conditions noted are these: glass vials heated to 30° C.-35° C. From the text: Exemplary methods for assessing whether a co-suspension is present can include the following: If one particle type has a pycnometric density greater than the propellant and another particle type has a pycnometric density lower than the propellant, a visual observation of the creaming or sedimentation behavior can be employed to determine the presence of a co-suspension. The term “pycnometric density” refers to the density of a material that makes up a particle, excluding voids within the particle. In one embodiment, the materials can be formulated or transferred into a transparent vial, typically a glass vial, for visual observation. After initial agitation the vial is left undisturbed for a sufficient time for formation of a sediment or cream layer, typically 24 hours. If the sediment or cream layer is observed to be completely or mostly a uniform single layer, a co-suspension is present.
Metered dose inhalers were prepared by weighing the target masses of micronized GP particles and suspending particles into fluorinated ethylene polymer (FEP) coated aluminum canisters (Presspart, Blackburn, UK) with 19 mL volume. […]

Series [3] is described as follows: Aerosol performance by Next Generation Impactor, USP <601> (fine particle fraction, MMAD). It is filed as physicochemical.
Procedure: A Next Generation Impactor (NGI) operated at a flow rate of 30 L/min was used for determination of particle size distribution. Sample canisters were seated into an actuator with two waste actuations and two additional waste priming actuations. Five actuations were collected in the NGI with a USP throat attached. The valve, actuator, throat, NGI cups, stages, and filter were rinsed with volumetrically dispensed solvent. The sample solutions were assayed using a drug specific chromatographic method. The fine particle fraction was defined using the sum of stages 3 through filter. […] Inhalers were seated and primed as described before. Two actuations were collected and assayed at beginning, middle and end of use.
A Next Generation Impactor (NGI) operated at a flow rate of 30 L/min was used for determination of particle size distribution. Sample canisters were seated into an actuator with two waste actuations and two additional waste priming actuations. Five actuations were collected in the NGI with a USP throat attached. The valve, actuator, throat, NGI cups, stages, and filter were rinsed with volumetrically dispensed solvent. The sample solutions were assayed using a drug specific chromatographic method. The fine particle fraction was defined using the sum of stages 3 through filter. […] Two actuations were collected and assayed at beginning, middle and end of use.
A Next Generation Impactor (NGI) operated at a flow rate of 30 L/min was used for determination of particle size distribution. Sample canisters were seated into an actuator with two waste actuations and two additional waste priming actuations. Five actuations were collected in the NGI with a USP throat attached. The valve, actuator, throat, NGI cups, stages, and filter were rinsed with volumetrically dispensed solvent. The sample solutions were assayed using a drug specific chromatographic method. The fine particle fraction was defined using the sum of stages 3 through filter.
[4] abbreviates: co-suspension MDI: 2 mg SX, 60 mg suspending particles, 10 mL HFA 134a.

Each structure is given as a SMILES string.

Regarding `C[N+]1(C)[C@@H]2C[C@@H](OC(=O)C(O)(c3cccs3)c3cccs3)C[C@H]1[C@@H]1O[C@@H]12` [tiotropium], in series [1], the “Mean time to ≥10% improvement in FEV1” value is on record as “approximately 3 hour”.
`OCc1cc(C(O)CNCCCCCCOCCCCc2ccccc2)ccc1O` (stereo not drawn) [SX, 4-hydroxy-α1-[[[6-(4-phenylbutoxy)hexyl]amino]methyl]-1,3-benzenedimethanol, 1-hydroxy-2-naphthalenecarboxylate]: in series [2], the “Visual observation of active agent particles formulated alone” value was “sedimented rapidly” and the “Visual observation of co-suspension vial” value is “no SX crystals were visible at the bottom”. In series [3] (setting [4]), this molecule returned a Fine particle fraction of 48% and an MMAD of 3.7 μm.
For `C[N+]1(C)CCC(OC(=O)C(O)(c2ccccc2)C2CCCC2)C1.[Br-]` (stereo not drawn) [glycopyrrolate, Pyrrolidinium, 3-((cyclopentylhydroxyphenylacetyl)oxy)-1,1-dimethyl-, bromide], the Fine particle fraction in series [3] (24 μg per actuation co-suspension MDI, initially) amounted to 59.3%.

The record behind these values is US10716753B2, “Compositions for pulmonary delivery of long-acting muscarinic antagonists or long-acting B2 adrenergic receptor agonists and associated methods and systems” (priority 2009, dated 2020).
